Experimental data from patent US5552402A, “Five-membered heteroaromatic compounds as 5-HT receptor agonists” (Merck, Sharp & Dohme Ltd., priority 1994, dated 1996).
Counter-ions that a name gives are not always drawn.

Target: T1, 5-HT1 -like receptor (Oryctolagus cuniculus, UniProt P49144)
T1 construct: contraction of the saphenous vein of New Zealand White rabbits; from tissue; host or cells: saphenous vein of New Zealand White rabbits
Assay: Agonist activity at 5-HT1-like receptor: contraction of the saphenous vein of New Zealand White rabbits
Settings: rabbit saphenous vein; from plots of percentage 5-HT (1 μM) response against concentration of agonist; read-out: EC50 (agonist potency, contraction of saphenous vein)
Method: The activity of test compounds as agonists of the 5-HT1 -like receptor was measured in terms of their ability to mediate contraction of the saphenous vein of New Zealand White rabbits, using the procedure described in Arch. Pharm., 1990, 342, 111. Agonist potencies were calculated as EC50 values, from plots of percentage 5-HT (1 μM) response against the concentration of the agonist.

T1 sequence (P49144 whole entry): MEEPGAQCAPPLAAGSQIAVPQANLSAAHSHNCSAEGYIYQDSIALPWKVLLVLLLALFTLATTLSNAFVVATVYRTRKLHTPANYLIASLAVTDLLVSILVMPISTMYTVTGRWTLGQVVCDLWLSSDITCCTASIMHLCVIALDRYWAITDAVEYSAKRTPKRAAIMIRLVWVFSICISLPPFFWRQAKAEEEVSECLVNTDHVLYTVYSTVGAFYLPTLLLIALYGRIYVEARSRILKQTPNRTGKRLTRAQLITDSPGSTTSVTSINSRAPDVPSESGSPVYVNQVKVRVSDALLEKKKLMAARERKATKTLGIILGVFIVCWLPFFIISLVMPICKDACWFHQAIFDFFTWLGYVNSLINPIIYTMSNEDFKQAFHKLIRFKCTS

Compound	EC50 [µM]
c1cc2[nH]cc(CCCN3CCNCC3)c2cc1-n1cnnc1 [Example 4, 1-(3-[5-(1,2,4-Triazol-4-yl)-1H-indol-3-yl]propyl)-4-(H)-piperazine. 3.5 Hydrogen Oxalate]	< 5
CN1CCN(CCCc2c[nH]c3ccc(-n4cnnc4)cc23)CC1 [Example 5, 1-(3-[5-(1,2,4-Triazol-4-yl)-1H-indol-3-yl]propyl)-4-(methyl)piperazine. 3.5 Hydrogen Oxalate Monohydrate]	< 5
